Patent publication US8710091B2, “Imidazolidine-2,4-dione derivatives, and use thereof as a cancer drug” (Ipsen Pharma S.A.S., priority 2009, dated 2014)

Assays:
Format in all cases: cell-based
DU145 cells = experiment: Antiproliferative activity on DU-145 in complete medium (WST-1); settings: Homo sapiens, 144 h incubation, read-out: IC50 on the DU145 cells in culture (concentration inhibiting cell proliferation by 50%)
Description: The anti-proliferative activity of the compounds of the present invention is determined on DU-145 in complete medium.
Maintenance of the DU-145 line is carried out in DMEM, 10% of foetal calf serum, 2 mM of glutamine, 100 U/ml of penicillin, 0.1 mg/ml of streptomycin. • Seeding the plates: • The DU145 line is seeded at 400 or 800 cells/well in 90 μl of DMEM complete medium in 96-well plates (TPP). • Treatment of the cells: 24 h after the seeding, the cells are treated with 10 μl/well of compound diluted in the culture medium. Experiments showing the dose-effect of the compound are carried out on a scale of 1 nM to 100 μM. The concentrations used are the following: 1 nM/10/30/100/300/1000/3000/10,000/100,000 nM. The cells are incubated for 144 h at 37° C., 5% CO2. • Reading: On D6, 10 μL, of cell proliferation reagent WST-1 (Roche ref 1644807) is added to each well. After incubation for 2 to 4 hours at 37° C., 5% CO2, the absorbance at 450 nm is measured by spectrophotometry (Envision, Perkin Elmer). • Results: The experiments are carried out in duplicate and the best compounds are tested twice. […] 4. Measurement of the Disappearance of the Androgen Receptor

androgen receptor = target: T1, androgen receptor (Homo sapiens, UniProt P10275, T878A); experiment: Measurement of the disappearance of the androgen receptor (Western blot, LNCaP cells); settings: 72 hours after treatment
T1 construct: The LNCaP cell type (ATCC, 1740) originating from a prostate carcinoma expressing the androgen receptor; host or cells: LNCaP
T1 sequence (P10275 1-920 T878A): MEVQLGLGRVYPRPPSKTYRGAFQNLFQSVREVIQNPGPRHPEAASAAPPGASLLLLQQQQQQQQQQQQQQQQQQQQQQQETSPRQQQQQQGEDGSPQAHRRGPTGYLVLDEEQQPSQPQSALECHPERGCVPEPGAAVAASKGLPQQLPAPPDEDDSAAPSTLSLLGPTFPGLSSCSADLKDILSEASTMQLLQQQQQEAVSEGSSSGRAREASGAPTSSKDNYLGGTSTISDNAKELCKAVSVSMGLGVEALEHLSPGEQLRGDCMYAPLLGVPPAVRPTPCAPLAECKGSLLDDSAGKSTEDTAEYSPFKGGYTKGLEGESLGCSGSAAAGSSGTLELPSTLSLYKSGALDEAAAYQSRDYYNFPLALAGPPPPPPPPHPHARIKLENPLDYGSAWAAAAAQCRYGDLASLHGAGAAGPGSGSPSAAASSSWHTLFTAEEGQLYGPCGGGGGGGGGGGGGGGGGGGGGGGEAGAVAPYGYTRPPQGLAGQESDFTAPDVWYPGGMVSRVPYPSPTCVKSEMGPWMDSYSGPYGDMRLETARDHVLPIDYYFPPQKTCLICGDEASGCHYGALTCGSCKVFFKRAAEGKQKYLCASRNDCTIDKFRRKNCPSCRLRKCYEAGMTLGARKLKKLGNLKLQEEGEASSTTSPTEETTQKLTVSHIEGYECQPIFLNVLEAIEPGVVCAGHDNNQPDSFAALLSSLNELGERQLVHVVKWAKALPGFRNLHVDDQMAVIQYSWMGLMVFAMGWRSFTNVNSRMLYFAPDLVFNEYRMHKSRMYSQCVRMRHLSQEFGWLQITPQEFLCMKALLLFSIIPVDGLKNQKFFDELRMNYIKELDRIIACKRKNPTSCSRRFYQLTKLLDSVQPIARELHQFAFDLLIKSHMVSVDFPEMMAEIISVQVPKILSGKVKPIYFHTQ
Description: The cells of the LNCaP line are seeded at a rate of 2.5 millions of cells per 10 cm Petri dish in RPMI, 10% of foetal calf serum, 2 mM of glutamine, 100 U/ml of penicillin, 0.1 mg/ml of streptomycin and 0.01M HEPES, 1 mM of sodium pyruvate, 40% of D-glucose. 4 days later, the cells are treated with the compound to be tested. 72 hours after the treatment the cells are lyzed in lysis buffer (50 mM Tris pH 7.4, 150 mM NaCl, 1 mM EDTA, 20 mM NaF, 100 mM Na2VO3, 0.5% of NP40, 1% of Triton X-100, 1 mM EGTA, Pefabloc, protease inhibitor cocktail 11836170001 RocheDiagnostics, Phosphatase inhibitor cocktail set II Calbiochem). The cells are then scrapped and the lysate transferred into QIAshredder tubes (cat No. 79656 Qiagen) for centrifugation at 13,000 rpm for 15 min at 4° C. The supernatant is transferred into QIAshredder tubes for a second centrifugation at 13,000 rpm for 5 min in order to completely eliminate the DNA filaments. […] The loading buffer (sample loading buffer 3×ref 7722 Cell signaling technology) with added 1% beta-mercaptoethanol and 50 mM DTT, is added to the samples which are then heated for 10 min at 90° C. The samples are deposited under a volume of 20 μl on NuPAGE 4-12% Bis-Tris gels (cat No. NP0322BOX, Invitrogen). The migration takes place in MOPS buffer (Invitrogen) and is carried out for 1 hour at 180V. […]

LNCaP cells = experiment: Antiproliferative activity on LNCaP in medium without steroids (WST-1); settings: 144 h, 1 nM to 100 μM
Description: The anti-proliferative activity of the compounds of the present invention is determined on LNCaP in medium without steroids.
The maintenance of the LNCaP line is carried out under the usual conditions in RPMI, 10% of foetal calf serum, 2 mM of glutamine, 100 U/ml of penicillin, 0.1 mg/ml of streptomycin and 0.01M HEPES, 1 mM sodium pyruvate, 40% of D-glucose.
For the study under conditions without steroids, 24 hours before the seeding the culture medium of the cells is eliminated. The cells are washed with PBS, then incubated in the presence of RPMI medium without phenol red, 10% of foetal calf serum without steroids (treatment with carbon), 2 mM of glutamine, 100 U/ml of penicillin, 0.1 mg/ml of streptomycin and 0.01M HEPES, 1 mM of sodium pyruvate, 40% of D-glucose. • Seeding the plates:
The LNCaP line is seeded at 20,000 cells/well in 90 μl of RPMI medium with 10% foetal calf serum without steroids in 96-well plates coated with poly-D-lysine (Biocoat, Costar). • Treatment of the cells: 24 h after seeding, the cells are treated with 10 μl/well of compound diluted in the culture medium. Experiments showing the dose-effect of the compound are carried out on a scale of 1 nM to 100 μM. The concentrations used are the following: 1 nM/10/30/100/300/1000/3000/10,000/100,000 nM. Testosterone (SIGMA T1500) is used as a reference and tested at the same concentrations. The cells are incubated for 144 h at 37° C., 5% CO2. • Reading: On D6, 10 μL of cell proliferation reagent WST-1 (Roche ref 1644807) is added to each well. After incubation for 2 to 4 hours at 37° C., 5% CO2, the absorbance at 450 nm is measured by spectrophotometry (Envision, Perkin Elmer). • Results: The experiments are carried out in duplicate and the best compounds are tested twice. […] 3. Antiproliferative Activity on DU-145 in Complete Medium: […]

IC50 (DU145 cells) [µM]	Compound	effect on the protein expression of the androgen receptor (FIGS. 2-4) (androgen receptor)	effect on the cell proliferation of LNCaP cultured in medium without steroids (FIG. 1) (LNCaP cells)
> 10	CC(=O)Nc1ccc(N2C(=O)N(CCCCCCCCC[S+]([O-])CCCC(F)(F)C(F)(F)F)C(C)(C)C2=O)cc1C(F)(F)F (centres unmarked) [Example 18, N-[4-(4,4-dimethyl-2,5-dioxo-3-{9-[(4,4,5,5,5-pentafluoropentyl)sulphinyl]-nonyl}imidazolidin-1-yl)-2-(trifluoromethyl)phenyl]acetamide]	reduction in the protein expression of the androgen receptor	anti-proliferative activity on the LNCaP cells without an agonist effect
	CN(C)CC(=O)Nc1ccc(N2C(=O)N(CCCCCCCCC[S+]([O-])CCCC(F)(F)C(F)(F)F)C(C)(C)C2=O)cc1C(F)(F)F (centres unmarked) [Example 43a, N-[4-(4,4-dimethyl-2,5-dioxo-3-{9-[(4,4,5,5,5-pentafluoropentyl)sulphinyl]nonyl}imidazolidin-1-yl)-2-(trifluoromethyl)phenyl]-N^2,N^2-dimethylglycinamide]	reduction in the protein expression of the androgen receptor	anti-proliferative activity on the LNCaP cells without an agonist effect
